Measured values taken from patent US12691107B2, “Methods for the treatment and prevention of lung infections caused by gram-positive bacteria, fungus, or virus by administration of tafenoquine” (priority 2020, dated 2026).
In brackets after ≈: the same amount, converted by molar mass. Like-named read-outs stand apart in the source and are kept apart here.

Tests used:
Assay type in all cases: cell-based
[1] = test system: M. tuberculosis [ATCC #27294]; assay: MIC against M. tuberculosis in 7H9 media; details: Mycobacterium tuberculosis, read-out: MIC
P. aeruginosa = assay: Antibacterial MIC (broth microdilution); details: Pseudomonas aeruginosa
K. pneumoniae = assay: Antibacterial MIC (broth microdilution); details: Klebsiella pneumoniae
A. baumannii = assay: Antibacterial MIC (broth microdilution); details: Acinetobacter baumannii
E. coli = assay: Antibacterial MIC (broth microdilution)
Method: Growth Medium—Cation adjusted Mueller-Hinton broth was used as the test medium. Broth for panel preparation was prepared from commercial dehydrated medium (Difco formulation, BD Diagnostics, catalog number 275730).
Dilution of Investigational Agents—Polystyrene test tubes were used to prepare the drug dilutions and sterile U-shaped 96-well polystyrene microtiter trays were used for performing the MIC assays. Stock solutions of the investigational agents were prepared at concentrations 100-times the highest concentration to be tested (6400-1.25 μg/ml) using dimethyl sulfoxide. Aliquots of the stock solutions were dispensed into polypropylene vials and stored at −20° C. Further dilutions (1:50) were made in the culture medium (cation-adjusted Mueller-Hinton medium).
After the dilutions of the working 2-fold investigational antibacterial solutions were prepared, 50 μL of each concentration was transferred into rows of the first 10 wells of each 12-well column of the U-shaped disposable 96-well microtiter trays using a multichannel pipettor. The 11th well in each row served as the sterility control, and the 12th well contained only culture medium to serve as the growth control for each isolate. In like manner, the control drug for the organism being tested was prepared in a separate 96 well panel exactly as described above. A 50 μL volume of the standardized inoculum suspension of each test isolate was prepared in culture medium to directly inoculate each test well of the drug containing microtiter tray.
Inoculum Preparation—Colonies of each strain generated on sheep blood agar plates with overnight growth at 35° C. in ambient air were used to directly prepare a suspension equivalent in density to the 0.5 McFarland opacity standard. The exact turbidity of each suspension was determined using a desktop portable photometer. For panels containing 2× drug concentrations, a 1:100 dilution of the McFarland organism suspension was prepared in cation-adjusted Mueller-Hinton broth and 50 μL aliquots of each test (and control) strain was added to each well of the designated rows of the microtiter trays using a multichannel pipettor. The target inoculum concentration was 5×10^5 CFU/ml in each well.
Trays were removed and each well were inspected for evidence of growth (turbidity). The MIC was defined as the lowest concentration of the investigational agent and the control drug that prevents visibly discernible growth in the test wells.

Rhizopus arrhizus = assay: Antifungal MIC (RPMI-1640 microdilution)
P. variotii = assay: Antifungal MIC (RPMI-1640 microdilution); details: Paecilomyces variotii, read-out: MIC 100% inhibition; isolate MYA-3630
Apophysomyces sp. = assay: Antifungal MIC (RPMI-1640 microdilution)
Sporothrix sp. = assay: Antifungal MIC (RPMI-1640 microdilution)
Saksenaea sp. = assay: Antifungal MIC (RPMI-1640 microdilution)
Streptococcus pneumoniae = assay: Antibacterial MIC (broth microdilution); details: Streptococcus pneumoniae, CA-MHB with 3% LHB
Staphylococcus aureus = assay: Antibacterial MIC (broth microdilution)

## NNC(=O)c1ccncc1 [Isoniazid]
[1]; ATCC27294, 168 h, 7H9 with BSA, DPPC and cholesterol, 1 week
  MIC: 0.2 µM (≈ 0.0274 µg/mL)
[1]; ATCC27294, 168 h, 7H9 with casitone and DPPC, 1 week
  MIC: 0.07 µM (≈ 0.0096 µg/mL)
[1]; ATCC27294, 168 h, 7H9 with glucose and BSA, 1 week
  MIC: 0.2 µM (≈ 0.0274 µg/mL)
[1]; ATCC27294, 168 h, 7H9 with glucose and casitone, 1 week
  MIC: 0.1 µM (≈ 0.0137 µg/mL)
[1]; ATCC27294, 336 h, 7H9 with BSA, DPPC and cholesterol, 2 weeks
  MIC: 0.3 µM (≈ 0.0411 µg/mL)
[1]; ATCC27294, 336 h, 7H9 with casitone and DPPC, 2 weeks
  MIC: 0.1 µM (≈ 0.0137 µg/mL)
[1]; ATCC27294, 336 h, 7H9 with glucose and BSA, 2 weeks
  MIC: 0.3 µM (≈ 0.0411 µg/mL)
[1]; ATCC27294, 336 h, 7H9 with glucose and casitone, 2 weeks
  MIC: 0.15 µM (≈ 0.0206 µg/mL)

## C[C@@H](O)[C@H]1C(=O)N2C(C(=O)O)=C(S[C@@H]3CN[C@H](C(=O)N(C)C)C3)[C@H](C)[C@H]12 [Meropenem]
P. aeruginosa; ATCC27853, isolate ATCC 27853
  MIC: 0.25 µg/mL (≈ 0.652 µM)
P. aeruginosa; isolate AR-230
  MIC: > 64 µg/mL
P. aeruginosa; isolate J4242
  MIC: 8 µg/mL (≈ 20.9 µM)
K. pneumoniae; ATCC70063, isolate ATCC 70063
  MIC: ≤ 0.125 µg/mL
K. pneumoniae; isolate AR-97
  MIC: 64 µg/mL (≈ 167 µM)
K. pneumoniae; isolate AR-113
  MIC: > 64 µg/mL
A. baumannii; ATCC17978, isolate ATCC 17978
  MIC: ≤ 0.125 µg/mL
A. baumannii; isolate AR-88
  MIC: > 64 µg/mL
A. baumannii; isolate AR-273
  MIC: 64 µg/mL (≈ 167 µM)
E. coli; Escherichia coli, ATCC25922, isolate ATCC 25922, read-out: MIC
  MIC: ≤ 0.125 µg/mL
E. coli; Escherichia coli, isolate J4243 (MO72), read-out: MIC
  MIC: ≤ 0.125 µg/mL
E. coli; isolate J4244 (JJ1886)
  MIC: ≤0.125 µg/mL

## CC[C@@H]([C@H](C)O)n1ncn(-c2ccc(N3CCN(c4ccc(OC[C@@H]5CO[C@@](Cn6cncn6)(c6ccc(F)cc6F)C5)cc4)CC3)cc2)c1=O [Posaconazole]
Rhizopus arrhizus; read-out: MIC 100% inhibition, isolate 99-880
  MIC: 1 µg/mL (≈ 1.43 µM)
Rhizopus arrhizus; read-out: MIC 100% inhibition, isolate 99-892
  MIC: 0.25 µg/mL (≈ 0.357 µM)
Rhizopus arrhizus; read-out: MIC 100% inhibition, isolate RAI
  MIC: 0.125 µg/mL (≈ 0.178 µM)
P. variotii
  MIC: ≤ 0.03 µg/mL
Apophysomyces sp.; read-out: MIC 100% inhibition, isolate Apo1
  MIC: 0.06 µg/mL (≈ 0.0856 µM)
Apophysomyces sp.; read-out: MIC 100% inhibition, isolate Apo2
  MIC: ≤ 0.03 µg/mL
Apophysomyces sp.; read-out: MIC 100% inhibition, isolate Apo3
  MIC: 0.5 µg/mL (≈ 0.713 µM)
Sporothrix sp.; read-out: MIC 100% inhibition, isolate Sporo1
  MIC: 0.06 µg/mL (≈ 0.0856 µM)
Sporothrix sp.; read-out: MIC 100% inhibition, isolate Sporo2
  MIC: 1 µg/mL (≈ 1.43 µM)
Sporothrix sp.; read-out: MIC 100% inhibition, isolate Sporo3
  MIC: 0.06 µg/mL (≈ 0.0856 µM)
Saksenaea sp.; read-out: MIC 100% inhibition, isolate Sak1
  MIC: ≤ 0.03 µg/mL
Saksenaea sp.; read-out: MIC 100% inhibition, isolate Sak2
  MIC: 0.06 µg/mL (≈ 0.0856 µM)
Saksenaea sp.; read-out: MIC 100% inhibition, isolate Sak3
  MIC: ≤ 0.03 µg/mL

## CN[C@H](CC(C)C)C(=O)N[C@H]1C(=O)N[C@@H](CC(N)=O)C(=O)N[C@H]2C(=O)N[C@H]3C(=O)N[C@H](C(=O)N[C@H](C(=O)O)c4cc(O)cc(O)c4-c4cc3ccc4O)[C@H](O)c3ccc(c(Cl)c3)Oc3cc2cc(c3O[C@@H]2O[C@H](CO)[C@@H](O)[C@H](O)[C@H]2O[C@H]2C[C@](C)(N)[C@H](O)[C@H](C)O2)Oc2ccc(cc2Cl)[C@H]1O [Vancomycin]
Streptococcus pneumoniae; ATCC49619, isolate ATCC 49619
  MIC: ≤ 0.125 µg/mL
Streptococcus pneumoniae; isolate CO314937
  MIC: ≤ 0.125 µg/mL
Streptococcus pneumoniae; isolate MD77773
  MIC: 0.25 µg/mL (≈ 0.173 µM)
Staphylococcus aureus; Staphylococcus aureus
  MIC: 1 µg/mL (≈ 0.69 µM)
Staphylococcus aureus; Staphylococcus aureus, ATCC29213
  MIC: 1 µg/mL (≈ 0.69 µM)
Staphylococcus aureus; isolate 6229
  MIC: 1 µg/mL (≈ 0.69 µM)
